Experimental data published in the NIST ThermoML archive (doi:10.1016/j.jct.2013.08.010).
Numbers after ± are expanded uncertainties.

Experiments:
[1] = mn = molality of the nth substance listed, in mol/kg; settings: 101 kPa, Liquid; for speed of sound: Sing-around technique in a fixed-path interferometer; for mass density: Vibrating tube method
[2] = 101 kPa, Liquid, Sing-around technique in a fixed-path interferometer

O=C([O-])CC(O)(CC(=O)[O-])C(=O)[O-].[Na+].[Na+].[Na+] [trisodium citrate] + O
speed of sound ([1]; 288.15 K, m1 = 0.2): 1508 ± 2.2 m/s
speed of sound ([1]; 288.15 K, m1 = 0.4): 1552.2 ± 2.3 m/s
speed of sound ([1]; 288.15 K, m1 = 0.6): 1591.5 ± 2.2 m/s
speed of sound ([1]; 288.15 K, m1 = 0.8): 1634 ± 2.3 m/s
mass density ([1]; 288.15 K, m1 = 0.2): 1034.67 ± 0.18 kg/m3
mass density ([1]; 288.15 K, m1 = 0.4): 1071.21 ± 0.19 kg/m3
mass density ([1]; 288.15 K, m1 = 0.6): 1104.43 ± 0.21 kg/m3
mass density ([1]; 288.15 K, m1 = 0.8): 1137.97 ± 0.23 kg/m3
speed of sound ([1]; 298.15 K, m1 = 0.2): 1536 ± 2.2 m/s
speed of sound ([1]; 298.15 K, m1 = 0.4): 1577.5 ± 2.2 m/s
speed of sound ([1]; 298.15 K, m1 = 0.6): 1614 ± 2.2 m/s
speed of sound ([1]; 298.15 K, m1 = 0.8): 1653.8 ± 2.3 m/s
mass density ([1]; 298.15 K, m1 = 0.2): 1031.98 ± 0.17 kg/m3
mass density ([1]; 298.15 K, m1 = 0.4): 1067.93 ± 0.19 kg/m3
mass density ([1]; 298.15 K, m1 = 0.6): 1100.68 ± 0.21 kg/m3
mass density ([1]; 298.15 K, m1 = 0.8): 1133.93 ± 0.23 kg/m3
speed of sound ([1]; 308.15 K, m1 = 0.2): 1556.9 ± 2.2 m/s
speed of sound ([1]; 308.15 K, m1 = 0.4): 1595.8 ± 2.2 m/s
speed of sound ([1]; 308.15 K, m1 = 0.6): 1630.3 ± 2.2 m/s
speed of sound ([1]; 308.15 K, m1 = 0.8): 1667.3 ± 2.2 m/s
mass density ([1]; 308.15 K, m1 = 0.2): 1028.5 ± 0.17 kg/m3
mass density ([1]; 308.15 K, m1 = 0.4): 1064.13 ± 0.19 kg/m3
mass density ([1]; 308.15 K, m1 = 0.6): 1096.96 ± 0.21 kg/m3
mass density ([1]; 308.15 K, m1 = 0.8): 1129.43 ± 0.22 kg/m3
speed of sound ([1]; 318.15 K, m1 = 0.2): 1571.8 ± 2.2 m/s
speed of sound ([1]; 318.15 K, m1 = 0.4): 1608.3 ± 2.2 m/s
speed of sound ([1]; 318.15 K, m1 = 0.6): 1641.2 ± 2.2 m/s
speed of sound ([1]; 318.15 K, m1 = 0.8): 1676.2 ± 2.2 m/s
mass density ([1]; 318.15 K, m1 = 0.2): 1024.36 ± 0.17 kg/m3
mass density ([1]; 318.15 K, m1 = 0.4): 1059.23 ± 0.19 kg/m3
mass density ([1]; 318.15 K, m1 = 0.6): 1092.26 ± 0.2 kg/m3
mass density ([1]; 318.15 K, m1 = 0.8): 1124.5 ± 0.22 kg/m3

O [water]
speed of sound ([2]; 288.15 K): 1463.1 ± 2.2 m/s
speed of sound ([2]; 298.15 K): 1495.8 ± 2.2 m/s
speed of sound ([2]; 308.15 K): 1519.1 ± 2.2 m/s
